According to US12398154B2, “Azaquinazoline pan-KRas inhibitors” (Mirati Therapeutics, Inc., priority 2020, dated 2025):

Tests used:
Assay in all cases: biochemical
KRas G12D = KRas G12D (Homo sapiens, UniProt P01116, G12D);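 note: TR-FRET displacement binding assay on KRas, read after a one-hour incubation at room temperature, IC50 fitted from percent-of-control values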
Experimental: (§1) The ability of a compound to bind to KRas was measured using a TR-FRET displacement assay. […] After a 60-minute incubation at room temperature, the reaction was measured using a BMG LABTECH CLARIO star Plus via TR-FRET. […] The POC values were fit to a 4-parameter IC50 equation and the IC50 value reported.

KRas G12V = KRas G12V (Homo sapiens, UniProt P01116, G12V);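 note: KRas binding measured by TR-FRET displacement at room temperature, IC50 fitted from percent of control values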
KRas G12V, sequence (P01116 1-169 isoform P01116-2 G12V): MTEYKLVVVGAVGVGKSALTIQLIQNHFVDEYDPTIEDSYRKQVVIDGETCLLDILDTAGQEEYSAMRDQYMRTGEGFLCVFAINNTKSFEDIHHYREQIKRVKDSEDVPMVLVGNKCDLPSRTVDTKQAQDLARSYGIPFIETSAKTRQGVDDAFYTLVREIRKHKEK
Experimental: as §1

KRas G12R = KRas G12R (Homo sapiens, UniProt P01116, G12R);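 note: TR-FRET displacement assay of compound binding to KRas, read after one hour at room temperature, potency from a four-parameter fit of percent-of-control values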
KRas G12R, sequence (P01116 1-169 isoform P01116-2 G12R): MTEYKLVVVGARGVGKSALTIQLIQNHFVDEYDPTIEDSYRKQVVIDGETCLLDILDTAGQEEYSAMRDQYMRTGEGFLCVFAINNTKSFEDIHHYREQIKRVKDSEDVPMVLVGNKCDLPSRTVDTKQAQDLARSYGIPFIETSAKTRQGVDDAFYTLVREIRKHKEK
Experimental: as §1

KRas G12A = KRas G12A (Homo sapiens, UniProt P01116, G12A);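 note: binding to KRas measured by TR-FRET displacement after one hour at room temperature, IC50 from a four-parameter fit of percent-of-control values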
KRas G12A, sequence (P01116 1-169 isoform P01116-2 G12A): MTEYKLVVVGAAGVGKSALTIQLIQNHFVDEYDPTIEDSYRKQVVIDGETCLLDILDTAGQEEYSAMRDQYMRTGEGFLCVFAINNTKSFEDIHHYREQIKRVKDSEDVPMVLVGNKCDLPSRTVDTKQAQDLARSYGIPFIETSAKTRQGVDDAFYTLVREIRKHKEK
Experimental: as §1

KRas G12S = KRas G12S (Homo sapiens, UniProt P01116, G12S);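 note: TR-FRET displacement binding to KRas, read after one hour incubation at room temperature, IC50 from four-parameter fit of percent of control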
KRas G12S, sequence (P01116 1-169 isoform P01116-2 G12S): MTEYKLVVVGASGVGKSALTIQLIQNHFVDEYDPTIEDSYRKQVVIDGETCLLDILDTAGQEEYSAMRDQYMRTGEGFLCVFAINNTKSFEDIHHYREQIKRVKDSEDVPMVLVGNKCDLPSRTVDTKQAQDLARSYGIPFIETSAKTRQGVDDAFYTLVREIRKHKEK
Experimental: as §1

KRas G12C = KRas G12C (Homo sapiens, UniProt P01116, G12C);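 note: binding to KRas assessed by TR-FRET displacement after one hour incubation at room temperature, potency fitted from percent-of-control values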
KRas G12C, sequence (P01116 1-169 isoform P01116-2 G12C): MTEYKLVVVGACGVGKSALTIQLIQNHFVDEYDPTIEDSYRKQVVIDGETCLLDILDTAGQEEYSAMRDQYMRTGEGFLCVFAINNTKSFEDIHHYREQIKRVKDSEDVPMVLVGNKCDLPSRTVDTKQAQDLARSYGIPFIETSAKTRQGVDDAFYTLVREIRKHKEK
Experimental: as §1

KRas WT = KRas WT (Homo sapiens, UniProt P01116);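 note: binding to KRas read as TR-FRET displacement after a one-hour room-temperature incubation, IC50 derived from percent-of-control values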
KRas WT, sequence (P01116 1-169 isoform P01116-2): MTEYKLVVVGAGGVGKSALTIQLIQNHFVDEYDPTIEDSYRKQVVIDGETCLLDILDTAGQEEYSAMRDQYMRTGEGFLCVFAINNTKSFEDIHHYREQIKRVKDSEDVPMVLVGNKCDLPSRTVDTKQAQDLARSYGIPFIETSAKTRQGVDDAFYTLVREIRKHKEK
Experimental: as §1

KRas G12D, sequence (P01116 1-169 isoform P01116-2 G12D): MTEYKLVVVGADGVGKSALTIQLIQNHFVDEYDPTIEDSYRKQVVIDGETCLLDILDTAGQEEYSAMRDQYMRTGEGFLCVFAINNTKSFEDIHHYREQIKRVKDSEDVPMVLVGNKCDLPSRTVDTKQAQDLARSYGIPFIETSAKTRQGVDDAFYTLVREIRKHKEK

SMILES | IC50 (KRas G12D) [nM] | IC50 (KRas G12V) [nM] | IC50 (KRas G12R) [nM] | IC50 (KRas G12A) [nM] | IC50 (KRas G12S) [nM] | IC50 (KRas G12C) [nM] | IC50 (KRas WT) [nM]
O=C1C[C@@]2(CCN(c3nc(OCC45CCCN4CCC5)nc4c(F)c(-c5cccc6cccc(F)c56)ncc34)C2)CN1 [Example 280, (S)-7-(8-fluoro-7-(8-fluoronaphthalen-1-yl)-2-((hexahydro-1H-pyrrolizin-7a-yl)methoxy)pyrido[4,3-d]pyrimidin-4-yl)-2,7-diazaspiro[4.4]nonan-3-one] | ≥ 100000 | ≥ 100000 | ≥ 100000 | ≥ 100000 | ≥ 100000 | 9860 | ≥ 100000
CCc1cccc2cccc(-c3ncc4c(N5CCCC(CS(N)(=O)=O)C5)nc(OCC56CCCN5CCC6)nc4c3F)c12 (stereo not drawn) [Example 285, 1-(1-(7-(8-ethylnaphthalen-1-yl)-8-fluoro-2-((tetrahydro-1H-pyrrolizin-7a(5H)-yl)methoxy)pyrido[4,3-d]pyrimidin-4-yl)piperidin-3-yl)methanesulfonamide] | 976 | 864 | 350 | 367 | 359 | 426 | 323
CCc1cccc2cccc(-c3ncc4c(N5CCCC6(CNC(=O)C6)C5)nc(OCC56CCCN5CCC6)nc4c3F)c12 (stereo not drawn) [Example 286, 7-(7-(8-ethylnaphthalen-1-yl)-8-fluoro-2-((hexahydro-1H-pyrrolizin-7a-yl)methoxy)pyrido[4,3-d]pyrimidin-4-yl)-2,7-diazaspiro[4.5]decan-3-one] | 313 | 521 | 674 | 370 | 407 | 410 | 608
CCc1cccc2cccc(-c3ncc4c(NCc5cn[nH]c5)nc(OCC56CCCN5CCC6)nc4c3F)c12 [Example 287, N-((1H-pyrazol-4-yl)methyl)-7-(8-ethylnaphthalen-1-yl)-8-fluoro-2-((hexahydro-1H-pyrrolizin-7a-yl)methoxy)pyrido[4,3-d]pyrimidin-4-amine] | 8170 | 225 | 225 | 648 | 590 | 321 | 838
CCc1cccc2cccc(-c3ncc4c(N5CCOCC(CO)C5)nc(OCC56CCCN5CCC6)nc4c3F)c12 (stereo not drawn) [Example 289, (4-(7-(8-ethylnaphthalen-1-yl)-8-fluoro-2-((hexahydro-1H-pyrrolizin-7a-yl)methoxy)pyrido[4,3-d]pyrimidin-4-yl)-1,4-oxazepan-6-yl)methanol] | 5610 | 807 | 754 | 607 | 520 | 407 | 818
CCc1cccc2cccc(-c3ncc4c(N5CC6CC(O)C(C6)C5)nc(OCC56CCCN5CCC6)nc4c3F)c12 (stereo not drawn) [Example 290, 3-(7-(8-ethylnaphthalen-1-yl)-8-fluoro-2-((hexahydro-1H-pyrrolizin-7a-yl)methoxy)pyrido[4,3-d]pyrimidin-4-yl)-3-azabicyclo[3,2,1]octan-6-ol] | 582 | 171 | 176 | 183 | 147 | 207 | 276
CCc1cccc2cccc(-c3ncc4c(N5CCCC(c6nc[nH]n6)C5)nc(OCC56CCCN5CCC6)nc4c3F)c12 (stereo not drawn) [Example 295, 4-(3-(1H-1,2,4-triazol-3-yl)piperidin-1-yl)-7-(8-ethylnaphthalen-1-yl)-8-fluoro-2-((hexahydro-1H-pyrrolizin-7a-yl)methoxy)pyrido[4,3-d]pyrimidine] | 2450 | 948 | 593 | 1800 | 2380 | 1900 | 2850
CCc1c(F)ccc2cc(O)cc(-c3ncc4c(N5CCC[C@@](C)(O)C5)nc(C(=O)NC(C)CN(C)C)nc4c3F)c12 (stereo partly drawn) [Example 312, N-(1-(dimethylamino)propan-2-yl)-7-(8-ethyl-7-fluoro-3-hydroxynaphthalen-1-yl)-8-fluoro-4-((R)-3-hydroxy-3-methylpiperidin-1-yl)pyrido[4,3-d]pyrimidine-2-carboxamide] | 388 | 254 | 203 | 156 | 172 | 212 | 202

The next molecules have a lower IC50 (KRas G12D) than those just listed; values first:

IC50 (KRas G12D) [nM] | IC50 (KRas G12V) [nM] | IC50 (KRas G12R) [nM] | IC50 (KRas G12A) [nM] | IC50 (KRas G12S) [nM] | IC50 (KRas G12C) [nM] | IC50 (KRas WT) [nM] | SMILES
194 | 130 | 120 | 138 | 132 | 141 | 116 | O=C1NC(=O)C2(COCCN(c3nc(OCC45CCCN4CCC5)nc4c(F)c(-c5cccc6cccc(F)c56)ncc34)C2)N1 (stereo not drawn) [Example 272, 10-(8-fluoro-7-(8-fluoronaphthalen-1-yl)-2-((hexahydro-1H-pyrrolizin-7a-yl)methoxy)pyrido[4,3-d]pyrimidin-4-yl)-7-oxa-1,3,10-triazaspiro[4.6]undecane-2,4-dione]
213 | 170 | 81 | 59 | 67 | 75 | 61 | NS(=O)(=O)CC1CCCN(c2nc(OCC34CCCN3CCC4)nc3c(F)c(-c4cccc5cccc(Cl)c45)ncc23)C1 (stereo not drawn) [Example 281, 1-(1-(7-(8-chloronaphthalen-1-yl)-8-fluoro-2-((tetrahydro-1H-pyrrolizin-7a(5H)-yl)methoxy)pyrido[4,3-d]pyrimidin-4-yl)piperidin-3-yl)methanesulfonamide]
30 | 15 | 18 | 16 | 15 | 16 | 15 | O=C1NC(=O)C2(CCCN(c3nc(OCC45CCCN4CCC5)nc4c(F)c(-c5cccc6cccc(Cl)c56)ncc34)C2)N1 (stereo not drawn) [Example 282, 7-(7-(8-chloronaphthalen-1-yl)-8-fluoro-2-((hexahydro-1H-pyrrolizin-7a-yl)methoxy)pyrido[4,3-d]pyrimidin-4-yl)-1,3,7-triazaspiro[4.5]decane-2,4-dione]
97 | 90 | 129 | 97 | 91 | 77 | 113 | O=C1CC2(CCCN(c3nc(OCC45CCCN4CCC5)nc4c(F)c(-c5cccc6cccc(Cl)c56)ncc34)C2)N1 (stereo not drawn) [Example 283, 6-(7-(8-chloronaphthalen-1-yl)-8-fluoro-2-((tetrahydro-1H-pyrrolizin-7a(5H)-yl)methoxy)pyrido[4,3-d]pyrimidin-4-yl)-1,6-diazaspiro[3.5]nonan-2-one]
38 | 41 | 58 | 46 | 45 | 44 | 46 | O=C1NCC2(CCCN(c3nc(OCC45CCCN4CCC5)nc4c(F)c(-c5cccc6cccc(Cl)c56)ncc34)C2)N1 (stereo not drawn) [Example 284, 7-(7-(8-chloronaphthalen-1-yl)-8-fluoro-2-((hexahydro-1H-pyrrolizin-7a-yl)methoxy)pyrido[4,3-d]pyrimidin-4-yl)-1,3,7-triazaspiro[4.5]decan-2-one]
53 | 67 | 78 | 95 | 82 | 68 | 89 | CCc1cccc2cccc(-c3ncc4c(N5CCCC6(CC(=O)N6)C5)nc(OCC56CCCN5CCC6)nc4c3F)c12 (stereo not drawn) [Example 288, 6-(7-(8-ethylnaphthalen-1-yl)-8-fluoro-2-((hexahydro-1H-pyrrolizin-7a-yl)methoxy)pyrido[4,3-d]pyrimidin-4-yl)-1,6-diazaspiro[3.5]nonan-2-one]
140 | 277 | 439 | 229 | 192 | 161 | 269 | CCc1cccc2cccc(-c3ncc4c(N5CCOCC(C)(O)C5)nc(OCC56CCCN5CCC6)nc4c3F)c12 (stereo not drawn) [Example 291, 4-(7-(8-ethylnaphthalen-1-yl)-8-fluoro-2-((hexahydro-1H-pyrrolizin-7a-yl)methoxy)pyrido[4,3-d]pyrimidin-4-yl)-6-methyl-1,4-oxazepan-6-ol]
21 | 61 | 180 | 97 | 26 | 88 | 68 | CCc1cccc2cccc(-c3ncc4c(N5CC6C(=O)NC(=O)C6C5)nc(OCC56CCCN5CCC6)nc4c3F)c12 (stereo not drawn) [Example 292, 5-(7-(8-ethylnaphthalen-1-yl)-8-fluoro-2-((hexahydro-1H-pyrrolizin-7a-yl)methoxy)pyrido[4,3-d]pyrimidin-4-yl)tetrahydropyrrolo[3,4-c]pyrrole-1,3(2H,3aH)-dione]
10 | 4 | 5 | 5 | 6 | 6 | 6 | CCc1cccc2cccc(-c3ncc4c(N5CCCC6(C5)NC(=O)NC6=O)nc(OCC56CCCN5CCC6)nc4c3F)c12 (stereo not drawn) [Example 293, 7-(7-(8-ethylnaphthalen-1-yl)-8-fluoro-2-((hexahydro-1H-pyrrolizin-7a-yl)methoxy)pyrido[4,3-d]pyrimidin-4-yl)-1,3,7-triazaspiro[4.5]decane-2,4-dione]
9 | 9 | 15 | 13 | 12 | 13 | 14 | CCc1cccc2cccc(-c3ncc4c(N5CCCC6(CNC(=O)N6)C5)nc(OCC56CCCN5CCC6)nc4c3F)c12 (stereo not drawn) [Example 294, 7-(7-(8-ethylnaphthalen-1-yl)-8-fluoro-2-((hexahydro-1H-pyrrolizin-7a-yl)methoxy)pyrido[4,3-d]pyrimidin-4-yl)-1,3,7-triazaspiro[4.5]decan-2-one]
